Data as given in patent US9114077B2, “Nanocrystals for use in topical cosmetic formulations and method of production thereof” (priority 2006, dated 2015).

Experiments:
[1] = format: physicochemical
Protocol: 5% Rutin micro-sized powder was dispersed in water, shaken and subsequently centrifuged at 4,000 rpm and then filtered through a 0.45 μm filter to remove any potential non-dissolved fine crystals. A Rutin nanosuspension was treated the same way but using a 0.2 μm filter.

[2] = test system: skin of volunteers (UV erythem); experiment: photo-protective potential after topical application in vivo (MED for UV erythem, SPF); details: human volunteers, 2 mg/cm^2 once daily on 4 days, UV irradiation day 4, 15 min after application
Excerpt: The Rutin and the Hesperidin nanosuspensions were investigated in vivo regarding their photo-protective potential compared to solutions of a water-soluble Rutin conjugate with saccharide (example 15). Topical application of the anti-oxidants should increase the dose required to generate a UV erythem. The higher the photo-protective effect, the higher will be the increase in the MED for UV erythem generation. Based on the ratio MED of treated area/MED untreated area a sun protection factor can be calculated. […] To very well differentiate in efficiency between the preparations, the formulations were applied only over 4 days (day 1, 2, 3 and 4) and only once a day. […] It has to be noted that the selected concentration of Rutin saccharide was equivalent to 5% Rutin.
Various formulations were investigated regarding their photo-protective potential after topical application in vivo. These formulations contained antioxidants and the photo-protective potential was evaluated by assessing the MED for generating an UV erythem (MED—minimal dose required for generating an erythem, minimal erythem dose). The sun susceptibility of the skin of volunteers was assessed after four times of application (once daily) of the formulations in comparison to untreated skin. Based on this a sun protection factor (SPF) was calculated.
The study was performed as a placebo controlled double blind study. Three male and three female volunteers with normal skin of photo type II to III took part. The medium age of the female volunteers was 49.6±9.8 years (38.8-57.4 years). Topical application of the formulations took place on 4 subsequent days (2 mg/cm^2), once daily. On day 4 eradiation by UV was performed 15 minutes after application of the formulations to the skin using a sun simulator SU6p (m.u.t. GmbH, Wedel/Germany). The sun simulator created 6 single doses with a geometric increment of 25%. The 5 test areas were on the back of the volunteers (4 areas for the formulations, 1 untreated control area).
A sun protection factor was defined as the ratio of the MED of the formulation treated area to the MED of the untreated area.

C[C@@H]1O[C@@H](OC[C@H]2O[C@@H](Oc3c(-c4ccc(O)c(O)c4)oc4cc(O)cc(O)c4c3=O)[C@H](O)[C@@H](O)[C@@H]2O)[C@H](O)[C@H](O)[C@H]1O [microcrystalline Rutin suspension, Rutin]
saturation solubility (concentration of dissolved Rutin in filtrate) [1]: 0.0079%

CC(=O)Oc1c(C)c(C)c2c(c1C)CCC(C)(CCC[C@H](C)CCC[C@H](C)CCCC(C)C)O2 (stereo partly drawn) [α-tocopherol acetate]
sun protection factor (SPF) = ratio MED treated area/MED untreated area (partly given as MED) [2]: 0.85±0.23
sun protection factor (SPF) = ratio MED treated area/MED untreated area (partly given as MED) ([2]; listed as alpha-tocopherol acetate): 0.85

α-G Rutin PS
sun protection factor (SPF) = ratio MED treated area/MED untreated area (partly given as MED) ([2]; listed as AGRPS): 1.27±0.31
sun protection factor (SPF) = ratio MED treated area/MED untreated area (partly given as MED) ([2]; listed as Rutin derivative solution): 1.27
sun protection factor (SPF) = ratio MED treated area/MED untreated area (partly given as MED) ([2]; listed as Rutin saccharide): 1.27
